Results from PubChem BioAssay AID330 (DTP/NCI, 2004).
Several values for one entry are separate records, joined by “and”; a condition that tells them apart may be missing. Equal entries are not always repeated. Inconclusive results and toxic doses are left out.

System: P388 leukemia ip, CD2F1 mice, survival T/C
Assay: NCI In Vivo Anticancer Drug Screen. Data for tumor model P388 Leukemia (intraperitoneal) in CD2F1 (CDF1) mice
Conditions: endpoint: median survival time, higher = longer survival
Method in brief: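 Mice carrying the transplanted tumor received test compound or vehicle. Survival was recorded in each group, and the value is the treated-group measurement divided by that of the vehicle-treated control group.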

[1] = dose: 50.0 mg/kg/injection, schedule: Q01DX009 (ip), vehicle: saline with Tween-80
[2] = dose: 100.0 mg/kg/injection, schedule: Q01DX009 (ip), vehicle: saline with Tween-80
[3] = dose: 50.0 mg/kg/injection, schedule: Q01DX005 (ip), vehicle: saline with Tween-80
[4] = dose: 100.0 mg/kg/injection, schedule: Q01DX005 (ip), vehicle: saline with Tween-80
[5] = dose: 200.0 mg/kg/injection, schedule: Q01DX005 (ip), vehicle: saline with Tween-80
[6] = dose: 50.0 mg/kg/injection, schedule: Q01DX009 (ip), vehicle: Klucel (hydroxypropylcellulose) (HPC)
[7] = dose: 100.0 mg/kg/injection, schedule: Q01DX009 (ip), vehicle: Klucel (hydroxypropylcellulose) (HPC)
[8] = dose: 200.0 mg/kg/injection, schedule: Q01DX009 (ip), vehicle: Klucel (hydroxypropylcellulose) (HPC)
[9] = dose: 100.0 mg/kg/injection, schedule: Q04DX003 (ip), vehicle: saline
[10] = dose: 200.0 mg/kg/injection, schedule: Q04DX003 (ip), vehicle: saline
[11] = dose: 400.0 mg/kg/injection, schedule: Q04DX003 (ip), vehicle: saline
[12] = dose: 60.0 mg/kg/injection, schedule: Q01DX005 (ip), vehicle: saline with Tween-80
[13] = dose: 120.0 mg/kg/injection, schedule: Q01DX005 (ip), vehicle: saline with Tween-80
[14] = dose: 200.0 mg/kg/injection, schedule: Q01DX009 (ip), vehicle: saline with Tween-80
[15] = dose: 50.0 mg/kg/injection, schedule: Q01DX005 (ip), vehicle: Klucel (hydroxypropylcellulose) (HPC)
[16] = dose: 12.5 mg/kg/injection, schedule: Q01DX005 (ip), vehicle: Klucel (hydroxypropylcellulose) (HPC)
[17] = dose: 25.0 mg/kg/injection, schedule: Q01DX005 (ip), vehicle: Klucel (hydroxypropylcellulose) (HPC)

Q: What does the source list for Nc1cc2c3c(cccc3c1)C(=O)N(CCN1CCCC1)C2=O?
A: T/C (dose: 6.25 mg/kg/injection, schedule: Q01DX009 (ip), vehicle: saline with Tween-80): 102 % of control; T/C (dose: 6.5 mg/kg/injection, schedule: Q01DX009 (ip), vehicle: saline with Tween-80): 122 % of control; T/C (dose: 12.1 mg/kg/injection, schedule: Q01DX009 (ip), vehicle: saline with Tween-80): 163 % of control; T/C (dose: 12.5 mg/kg/injection, schedule: Q01DX009 (ip), vehicle: saline with Tween-80): 110 % of control; T/C (dose: 24.2 mg/kg/injection, schedule: Q01DX009 (ip), vehicle: saline with Tween-80): 160 % of control and 180 % of control; T/C (dose: 48.39 mg/kg/injection, schedule: Q01DX009 (ip), vehicle: saline with Tween-80): 86 % of control and 96 % of control; T/C [1]: 173 % of control; T/C [2]: 189 % of control

Q: For C[C@@H]1C[C@@H]2c3cccc4c3c(cn4CO)C[C@H]2N(C)C1, which T/C [3] is on record?
A: 100 % of control

Q: And the T/C [4]?
A: 100 % of control

Q: What about the T/C [5] of the same compound?
A: 107 % of control

Q: How did the T/C (dose: 25.0 mg/kg/injection, schedule: Q01DX009 (ip), vehicle: saline) turn out when Cc1ccc(S)c(S)c1 was run?
A: 100 % of control

Q: What about the T/C (dose: 50.0 mg/kg/injection, schedule: Q01DX009 (ip), vehicle: saline) of the same compound?
A: 108 % of control

Q: What about the T/C (dose: 100.0 mg/kg/injection, schedule: Q01DX009 (ip), vehicle: saline) of the same compound?
A: 100 % of control and 106 % of control and 113 % of control

Q: And the T/C (dose: 200.0 mg/kg/injection, schedule: Q01DX009 (ip), vehicle: saline)?
A: 101 % of control

Q: What about the T/C (dose: 400.0 mg/kg/injection, schedule: Q01DX009 (ip), vehicle: saline) of the same compound?
A: 94 % of control

Q: And the T/C (dose: 600.0 mg/kg/injection, schedule: Q01DX009 (ip), vehicle: saline)?
A: 91 % of control

Q: With S=C(N/N=C/c1ccccn1)SCc1ccccc1 as the compound, how does the T/C [6] read?
A: 101 % of control

Q: And the T/C [7]?
A: 104 % of control

Q: And the T/C [8]?
A: 100 % of control

Q: What does the source list for COc1ccc(/C(C)=N/[O-])cc1CS[n+]1ccccc1?
A: T/C (dose: 50.0 mg/kg/injection, schedule: Q01DX005 (ip), vehicle: distilled water + Tween-80 + alcohol): 104 % of control; T/C (dose: 100.0 mg/kg/injection, schedule: Q01DX005 (ip), vehicle: distilled water + Tween-80 + alcohol): 95 % of control; T/C (dose: 200.0 mg/kg/injection, schedule: Q01DX005 (ip), vehicle: distilled water + Tween-80 + alcohol): 104 % of control

Q: Which T/C (dose: 100.0 mg/kg/injection, schedule: Q01DX001 (ip), vehicle: saline with Tween-80) does the source give for CC(O)(CCCCCl)c1nc2ccccc2s1 (centres undefined) here?
A: 98 % of control

Q: And the T/C (dose: 200.0 mg/kg/injection, schedule: Q01DX001 (ip), vehicle: saline with Tween-80)?
A: 103 % of control

Q: What about the T/C (dose: 400.0 mg/kg/injection, schedule: Q01DX001 (ip), vehicle: saline with Tween-80) of the same compound?
A: 92 % of control

Q: How did the T/C [9] turn out when CC(=O)n1[nH]c(=O)ccc1=O was run?
A: 115 % of control

Q: What about the T/C [10] of the same compound?
A: 107 % of control

Q: And the T/C [11]?
A: 115 % of control

Q: Which T/C [12] does the source give for O=C1c2ccccc2C2=Cc3ccccc3C(O)N12 (centres undefined) here?
A: 104 % of control

Q: What about the T/C [13] of the same compound?
A: 100 % of control

Q: And the T/C (dose: 240.0 mg/kg/injection, schedule: Q01DX005 (ip), vehicle: saline with Tween-80)?
A: 100 % of control

Q: For CCOC(=O)c1nc2ccccc2c(=O)[nH]1, which T/C [2] is on record?
A: 102 % of control

Q: What about the T/C [14] of the same compound?
A: 108 % of control

Q: What about the T/C (dose: 400.0 mg/kg/injection, schedule: Q01DX009 (ip), vehicle: saline with Tween-80) of the same compound?
A: 100 % of control

Q: Which results are given for O=C(/C=C/c1ccccc1Cl)c1ccccc1?
A: T/C [1]: 112 % of control; T/C [2]: 110 % of control; T/C [14]: 114 % of control

Q: How did the T/C (dose: 100.0 mg/kg/injection, schedule: Q01DX001 (ip), vehicle: Klucel (hydroxypropylcellulose) (HPC)) turn out when COc1cc(C/C(=C\c2ccc3c(c2)OCO3)[N+](=O)[O-])ccc1OCc1ccccc1 was run?
A: 98 % of control

Q: What about the T/C (dose: 200.0 mg/kg/injection, schedule: Q01DX001 (ip), vehicle: Klucel (hydroxypropylcellulose) (HPC)) of the same compound?
A: 96 % of control

Q: What about the T/C (dose: 400.0 mg/kg/injection, schedule: Q01DX001 (ip), vehicle: Klucel (hydroxypropylcellulose) (HPC)) of the same compound?
A: 96 % of control

Q: CC(C)CCNO was tested. Which T/C [3] did it give?
A: 96 % of control

Q: And the T/C [4]?
A: 100 % of control

Q: And the T/C [5]?
A: 93 % of control

Q: Which results are given for CN1CCN(C)B1N=S=NB1N(C)CCN1C?
A: T/C (dose: 12.5 mg/kg/injection, schedule: Q01DX005 (ip), vehicle: olive oil, sesame oil, peanut oil): 100 % of control and 105 % of control; T/C (dose: 25.0 mg/kg/injection, schedule: Q01DX005 (ip), vehicle: olive oil, sesame oil, peanut oil): 105 % of control and 96 % of control; T/C (dose: 50.0 mg/kg/injection, schedule: Q01DX005 (ip), vehicle: olive oil, sesame oil, peanut oil): 104 % of control and 97 % of control; T/C (dose: 100.0 mg/kg/injection, schedule: Q01DX005 (ip), vehicle: olive oil, sesame oil, peanut oil): 102 % of control and 103 % of control

Q: Which T/C [6] does the source give for O=C1NC(=S)S/C1=C\c1ccncc1 here?
A: 100 % of control and 110 % of control and 116 % of control

Q: What about the T/C [7] of the same compound?
A: 106 % of control (2×) and 114 % of control

Q: And the T/C [8]?
A: 98 % of control and 121 % of control and 91 % of control

Q: What about the T/C (dose: 400.0 mg/kg/injection, schedule: Q01DX009 (ip), vehicle: Klucel (hydroxypropylcellulose) (HPC)) of the same compound?
A: 106 % of control

Q: With O=C(O)CCC/C=N/O as the compound, how does the T/C (dose: 100.0 mg/kg/injection, schedule: Q04DX003 (ip), vehicle: Klucel (hydroxypropylcellulose) (HPC)) read?
A: 98 % of control

Q: And the T/C (dose: 200.0 mg/kg/injection, schedule: Q04DX003 (ip), vehicle: Klucel (hydroxypropylcellulose) (HPC))?
A: 99 % of control

Q: What about the T/C (dose: 400.0 mg/kg/injection, schedule: Q04DX003 (ip), vehicle: Klucel (hydroxypropylcellulose) (HPC)) of the same compound?
A: 102 % of control

Q: COC(OC)c1cc(=O)[nH]c(=S)[nH]1 was tested. Which T/C (dose: 50.0 mg/kg/injection, schedule: Q04DX003 (ip), vehicle: saline) did it give?
A: 95 % of control

Q: What about the T/C [9] of the same compound?
A: 96 % of control

Q: And the T/C [10]?
A: 93 % of control

Q: And the T/C [11]?
A: 104 % of control

Q: With CC(=O)NNC(=O)NCCCCCCNC(=O)NNC(C)=O as the compound, how does the T/C [15] read?
A: 101 % of control

Q: What about the T/C (dose: 100.0 mg/kg/injection, schedule: Q01DX005 (ip), vehicle: Klucel (hydroxypropylcellulose) (HPC)) of the same compound?
A: 97 % of control

Q: And the T/C (dose: 200.0 mg/kg/injection, schedule: Q01DX005 (ip), vehicle: Klucel (hydroxypropylcellulose) (HPC))?
A: 92 % of control

Q: What about the T/C (dose: 400.0 mg/kg/injection, schedule: Q01DX005 (ip), vehicle: Klucel (hydroxypropylcellulose) (HPC)) of the same compound?
A: 94 % of control

Q: Which T/C (dose: 60.0 mg/kg/injection, schedule: Q01DX005 (ip), vehicle: Klucel (hydroxypropylcellulose) (HPC)) does the source give for OCC1CSC(=S)N1Cc1ccccc1 (centres undefined) here?
A: 97 % of control

Q: And the T/C (dose: 120.0 mg/kg/injection, schedule: Q01DX005 (ip), vehicle: Klucel (hydroxypropylcellulose) (HPC))?
A: 100 % of control

Q: And the T/C (dose: 240.0 mg/kg/injection, schedule: Q01DX005 (ip), vehicle: Klucel (hydroxypropylcellulose) (HPC))?
A: 107 % of control

Q: Which results are given for CC(c1ccccc1)N1OC1(C)C (centres undefined)?
A: T/C [16]: 101 % of control; T/C [17]: 106 % of control; T/C [15]: 102 % of control

Q: Which T/C [12] does the source give for COC(=O)c1nc(N)nc(C(=O)OC)c1C(=O)C(C)(C)C here?
A: 96 % of control

Q: What about the T/C [13] of the same compound?
A: 96 % of control

Q: Cc1nc2ccccc2[n]1[Sn]([CH3])([CH3])[n]1c(C)nc2ccccc21 was tested. Which T/C [16] did it give?
A: 118 % of control

Q: And the T/C [17]?
A: 118 % of control

Q: What about the T/C [15] of the same compound?
A: 112 % of control and 118 % of control

Q: With CC1(C)Nc2cccc3c(N=Nc4ccc(N=Nc5ccccc5)c5ccccc45)ccc(c23)N1 as the compound, how does the T/C (dose: 25.0 mg/kg/injection, schedule: Q01DX009 (ip), vehicle: saline with Tween-80) read?
A: 120 % of control and 95 % of control and 97 % of control

Q: And the T/C [1]?
A: 101 % of control and 103 % of control and 112 % of control

Q: And the T/C [2]?
A: 104 % of control and 123 % of control and 91 % of control

Q: What about the T/C [14] of the same compound?
A: 94 % of control and 95 % of control

Q: Which results are given for OCCN(CCO)c1nc(N(CCO)CCO)c(N2CCCCC2)c(N2CCCCC2)n1?
A: T/C (dose: 100.0 mg/kg/injection, schedule: Q04DX002 (ip), vehicle: saline): 104 % of control; T/C (dose: 200.0 mg/kg/injection, schedule: Q04DX002 (ip), vehicle: saline): 105 % of control; T/C (dose: 400.0 mg/kg/injection, schedule: Q04DX002 (ip), vehicle: saline): 98 % of control

Q: What does the source list for CCOC(=O)c1cc([N+](=O)[O-])c(SSc2sc(C(=O)OCC)cc2[N+](=O)[O-])s1?
A: T/C (dose: 100.0 mg/kg/injection, schedule: Q04DX003 (ip), vehicle: saline with Tween-80): 104 % of control; T/C (dose: 200.0 mg/kg/injection, schedule: Q04DX003 (ip), vehicle: saline with Tween-80): 96 % of control; T/C (dose: 400.0 mg/kg/injection, schedule: Q04DX003 (ip), vehicle: saline with Tween-80): 95 % of control
